Tested on: 171881-019-R-J1-PDC tumor spheroid viability
Assay: Anticancer human tumor 171881-019-R-J1-PDC patient-derived invasive breast carcinoma cell line growth inhibition [PI3K]
Settings: spheroids with HUVEC and MSC; for IC50: curve of first compound; for viability, T/C: stronger effect = lower value
Procedure, shortened: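 Complex 3D spheroids (cancer cells + endothelial HUVEC + mesenchymal stem cells); drug pairs of targeted agent x inavolisib/alpelisib/duvelisib/copanlisib; half-log series from ~Cmax, max 10 microM if Cmax unknown; endpoint viability.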

[1] = second compound 0.0316 µM, first compound 0.0316 µM
[2] = second compound 0.0316 µM, first compound 0.1 µM
[3] = second compound 0.0316 µM, first compound 0.316 µM
[4] = second compound 0.0316 µM, first compound 1 µM
[5] = second compound 0.0316 µM, first compound 3.16 µM
[6] = second compound 0.0316 µM, first compound 10 µM
[7] = second compound 0.1 µM, first compound 0.0316 µM
[8] = second compound 0.1 µM, first compound 0.1 µM
[9] = second compound 0.1 µM, first compound 0.316 µM
[10] = second compound 0.1 µM, first compound 1 µM
[11] = second compound 0.1 µM, first compound 3.16 µM
[12] = second compound 0.1 µM, first compound 10 µM
[13] = second compound 0.316 µM, first compound 0.0316 µM
[14] = second compound 0.316 µM, first compound 0.1 µM
[15] = second compound 0.316 µM, first compound 0.316 µM
[16] = second compound 0.316 µM, first compound 1 µM
[17] = second compound 0.316 µM, first compound 3.16 µM
[18] = second compound 0.316 µM, first compound 10 µM
[19] = second compound 1 µM, first compound 0.0316 µM
[20] = second compound 1 µM, first compound 0.1 µM
[21] = second compound 1 µM, first compound 0.316 µM
[22] = second compound 1 µM, first compound 1 µM
[23] = second compound 1 µM, first compound 3.16 µM
[24] = second compound 1 µM, first compound 10 µM
[25] = second compound 3.16 µM, first compound 0.0316 µM
[26] = second compound 3.16 µM, first compound 0.1 µM
[27] = second compound 3.16 µM, first compound 0.316 µM
[28] = second compound 3.16 µM, first compound 1 µM
[29] = second compound 3.16 µM, first compound 3.16 µM
[30] = second compound 3.16 µM, first compound 10 µM
[31] = second compound 10 µM, first compound 0.0316 µM
[32] = second compound 10 µM, first compound 0.1 µM
[33] = second compound 10 µM, first compound 0.316 µM
[34] = second compound 10 µM, first compound 1 µM
[35] = second compound 10 µM, first compound 3.16 µM
[36] = second compound 10 µM, first compound 10 µM
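Also: spheroids exposed to compound for 7 days before viability read.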
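For viability, T/C in this document: 100% = DMSO vehicle-treated spheroids.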

Structure (SMILES): CC(C)NCC(C(=O)N1CCN(c2ncnc3c2C(C)CC3O)CC1)c1ccc(Cl)cc1 (stereo not drawn) + CC(Nc1ncnc2nc[nH]c12)c1cc2cccc(Cl)c2c(=O)n1-c1ccccc1
- IC50 (second compound 0.0316 µM): 388 nM
- IC50 (second compound 0.1 µM): 293 nM
- IC50 (second compound 0.316 µM): 393 nM
- IC50 (second compound 1 µM): 401 nM
- IC50 (second compound 3.16 µM): 357 nM
- IC50 (second compound 10 µM): 150 nM
- viability, T/C [1]: 96.1%
- viability, T/C [2]: 83.8%
- viability, T/C [3]: 54.5%
- viability, T/C [4]: 27.6%
- viability, T/C [5]: 14.6%
- viability, T/C [6]: 11.4%
- viability, T/C [7]: 97.6%
- viability, T/C [8]: 73.1%
- viability, T/C [9]: 48.4%
- viability, T/C [10]: 29.4%
- viability, T/C [11]: 14.6%
- viability, T/C [12]: 10.1%
- viability, T/C [13]: 80%
- viability, T/C [14]: 82.8%
- viability, T/C [15]: 50.9%
- viability, T/C [16]: 30%
- viability, T/C [17]: 14.4%
- viability, T/C [18]: 9.02%
- viability, T/C [19]: 93.2%
- viability, T/C [20]: 81%
- viability, T/C [21]: 55.9%
- viability, T/C [22]: 28%
- viability, T/C [23]: 12.5%
- viability, T/C [24]: 8.65%
- viability, T/C [25]: 78.6%
- viability, T/C [26]: 75.1%
- viability, T/C [27]: 51.2%
- viability, T/C [28]: 27.1%
- viability, T/C [29]: 11.5%
- viability, T/C [30]: 8.08%
- viability, T/C [31]: 57%
- viability, T/C [32]: 53.6%
- viability, T/C [33]: 43%
- viability, T/C [34]: 21.6%
- viability, T/C [35]: 9.56%
- viability, T/C [36]: 5.96%

Structure (SMILES): CC1(C)CCC(CN2CCN(c3ccc(C(=O)NS(=O)(=O)c4ccc(NCC5CCOCC5)c([N+](=O)[O-])c4)c(Oc4cnc5[nH]ccc5c4)c3)CC2)=C(c2ccc(Cl)cc2)C1 + CC(Nc1ncnc2nc[nH]c12)c1cc2cccc(Cl)c2c(=O)n1-c1ccccc1
- IC50 (second compound 0.0316 µM): 4130 nM
- IC50 (second compound 0.1 µM): 3980 nM
- IC50 (second compound 0.316 µM): 3970 nM
- IC50 (second compound 1 µM): 4010 nM
- IC50 (second compound 3.16 µM): 2590 nM
- IC50 (second compound 10 µM): 1490 nM
- viability, T/C [1]: 88.6%
- viability, T/C [2]: 80.2%
- viability, T/C [3]: 80.3%
- viability, T/C [4]: 76%
- viability, T/C [5]: 61.9%
- viability, T/C [6]: 14.3%
- viability, T/C [7]: 89.7%
- viability, T/C [8]: 89.9%
- viability, T/C [9]: 74.5%
- viability, T/C [10]: 72.6%
- viability, T/C [11]: 64.1%
- viability, T/C [12]: 11.7%
- viability, T/C [13]: 90.4%
- viability, T/C [14]: 88.2%
- viability, T/C [15]: 81.9%
- viability, T/C [16]: 97.3%
- viability, T/C [17]: 59.2%
- viability, T/C [18]: 12.4%
- viability, T/C [19]: 92.1%
- viability, T/C [20]: 88.3%
- viability, T/C [21]: 81.4%
- viability, T/C [22]: 84.8%
- viability, T/C [23]: 59.9%
- viability, T/C [24]: 10.8%
- viability, T/C [25]: 84.5%
- viability, T/C [26]: 87.9%
- viability, T/C [27]: 85%
- viability, T/C [28]: 75.7%
- viability, T/C [29]: 44.6%
- viability, T/C [30]: 11.4%
- viability, T/C [31]: 64.5%
- viability, T/C [32]: 55.9%
- viability, T/C [33]: 57%
- viability, T/C [34]: 57%
- viability, T/C [35]: 37.7%
- viability, T/C [36]: 9.06%

Structure (SMILES): C[C@@H](NC(=O)c1ncnc(N)c1Cl)c1ncc(C(=O)Nc2cc(C(F)(F)F)c(Cl)cn2)s1 + CC(Nc1ncnc2nc[nH]c12)c1cc2cccc(Cl)c2c(=O)n1-c1ccccc1
- IC50 (second compound 0.0316 µM): > 10000 nM
- IC50 (second compound 0.1 µM): 9460 nM
- IC50 (second compound 0.316 µM): 8250 nM
- IC50 (second compound 1 µM): 7020 nM
- IC50 (second compound 3.16 µM): 3020 nM
- IC50 (second compound 10 µM): 666 nM
- viability, T/C [1]: 76.3%
- viability, T/C [2]: 81.8%
- viability, T/C [3]: 86.3%
- viability, T/C [4]: 104%
- viability, T/C [5]: 79%
- viability, T/C [6]: 51.3%
- viability, T/C [7]: 92.4%
- viability, T/C [8]: 96.4%
- viability, T/C [9]: 88.2%
- viability, T/C [10]: 93.4%
- viability, T/C [11]: 76.5%
- viability, T/C [12]: 48.5%
- viability, T/C [13]: 92.7%
- viability, T/C [14]: 78%
- viability, T/C [15]: 93.2%
- viability, T/C [16]: 83.2%
- viability, T/C [17]: 79.4%
- viability, T/C [18]: 44.1%
- viability, T/C [19]: 99.6%
- viability, T/C [20]: 92.8%
- viability, T/C [21]: 96.4%
- viability, T/C [22]: 93.8%
- viability, T/C [23]: 69.4%
- viability, T/C [24]: 41.4%
- viability, T/C [25]: 90.1%
- viability, T/C [26]: 74.8%
- viability, T/C [27]: 78%
- viability, T/C [28]: 77.9%
- viability, T/C [29]: 48.8%
- viability, T/C [30]: 30%
- viability, T/C [31]: 63.8%
- viability, T/C [32]: 60.8%
- viability, T/C [33]: 54.6%
- viability, T/C [34]: 48.5%
- viability, T/C [35]: 33.4%
- viability, T/C [36]: 21.2%

Structure (SMILES): Cn1ncnc1[C@H]1c2n[nH]c(=O)c3cc(F)cc(c23)N[C@@H]1c1ccc(F)cc1 + CC(Nc1ncnc2nc[nH]c12)c1cc2cccc(Cl)c2c(=O)n1-c1ccccc1
- IC50 (second compound 0.0316 µM): > 100 nM
- IC50 (second compound 0.1 µM): > 100 nM
- IC50 (second compound 0.316 µM): > 100 nM
- IC50 (second compound 1 µM): > 100 nM
- IC50 (second compound 3.16 µM): > 100 nM
- IC50 (second compound 10 µM): > 100 nM
- viability, T/C (second compound 0.0316 µM, first compound 0.000316 µM): 88.4%
- viability, T/C (second compound 0.0316 µM, first compound 0.001 µM): 96.4%
- viability, T/C (second compound 0.0316 µM, first compound 0.00316 µM): 93.4%
- viability, T/C (second compound 0.0316 µM, first compound 0.01 µM): 104%
- viability, T/C [1]: 97.3%
- viability, T/C [2]: 92.1%
- viability, T/C (second compound 0.1 µM, first compound 0.000316 µM): 102%
- viability, T/C (second compound 0.1 µM, first compound 0.001 µM): 98.6%
- viability, T/C (second compound 0.1 µM, first compound 0.00316 µM): 88.8%
- viability, T/C (second compound 0.1 µM, first compound 0.01 µM): 109%
- viability, T/C [7]: 90.6%
- viability, T/C [8]: 102%
- viability, T/C (second compound 0.316 µM, first compound 0.000316 µM): 93.2%
- viability, T/C (second compound 0.316 µM, first compound 0.001 µM): 99.5%
- viability, T/C (second compound 0.316 µM, first compound 0.00316 µM): 92.1%
- viability, T/C (second compound 0.316 µM, first compound 0.01 µM): 106%
- viability, T/C [13]: 90.1%
- viability, T/C [14]: 95.8%
- viability, T/C (second compound 1 µM, first compound 0.000316 µM): 82%
- viability, T/C (second compound 1 µM, first compound 0.001 µM): 100%
- viability, T/C (second compound 1 µM, first compound 0.00316 µM): 105%
- viability, T/C (second compound 1 µM, first compound 0.01 µM): 103%
- viability, T/C [19]: 97.1%
- viability, T/C [20]: 98.2%
- viability, T/C (second compound 3.16 µM, first compound 0.000316 µM): 83.5%
- viability, T/C (second compound 3.16 µM, first compound 0.001 µM): 91.3%
- viability, T/C (second compound 3.16 µM, first compound 0.00316 µM): 85.1%
- viability, T/C (second compound 3.16 µM, first compound 0.01 µM): 93.2%
- viability, T/C [25]: 92.5%
- viability, T/C [26]: 78.1%
- viability, T/C (second compound 10 µM, first compound 0.000316 µM): 61.6%
- viability, T/C (second compound 10 µM, first compound 0.001 µM): 64.7%
- viability, T/C (second compound 10 µM, first compound 0.00316 µM): 60.5%
- viability, T/C (second compound 10 µM, first compound 0.01 µM): 60.8%
- viability, T/C [31]: 57.2%
- viability, T/C [32]: 57.6%

Source: PubChem BioAssay AID1963986 (Molecular Pharmacology Branch, DTP, NCI, 2024)
